Measured values published in US20110245759A1, “Methods of Treating An Infection with Nitric Oxide” (NITRIC BIOTHERAPEUTICS, INC., priority 2008, published 2011).

What was measured:
[1] = test system: moderate-severe interdigital and/or moccasin-type tinea pedis; test: Single-site placebo-controlled clinical trial of gaseous nitric oxide in moderate-severe tinea pedis (Example 11); format: in vivo, human; settings: 1% nitric oxide
Description: To evaluate the effectiveness of gaseous nitric oxide treatment against moderate-severe interdigital and/or moccasin-type tinea pedis, a single-site, placebo-controlled clinical trial treating≧50 evaluable human patients with moderate-severe interdigital tinea pedis was conducted. […] The foot of each patient was fitted with a flexible, plastic boot-like enclosure that was sealed at the mid-calf (see, for example, FIG. 19) and the foot was bathed with 1% gaseous nitric oxide in nitrogen, or 1% gaseous nitric oxide and 20% oxygen in nitrogen, or placebo (i.e., nitrogen) at a fixed flow of 1 liter per minute for 40 minutes each day for each of three consecutive days, Gas entered the boot-like enclosure near the toe region with passive diffusion from the enclosure into a well-ventilated examination room. Each foot of each patient was fitted with an air-tight, ankle-high covering […] On days 1, 3 and 12, each patient was assessed by a podiatrist blinded to the patient's treatment group and given a clinical symptom severity score ranging from 0 to 64.

[2] = test system: coagulase-negative Staphylococci (CNS); test: Full-thickness porcine wounds infected with bacteria, treated with nitric oxide with or without oxygen (Example 1); format: in vivo, pig
mild tinea pedis = test: Single-site clinical trial of gaseous nitric oxide in mild tinea pedis (Example 10); format: in vivo, human; settings: 1% gaseous nitric oxide in nitrogen, 10 patients, FIG. 14
Description: To evaluate the effectiveness of gaseous nitric oxide treatment against mild tinea pedis, a single-site clinical trial treating 10 human patients with mild tinea pedis was conducted. […] The foot of each patient was fitted with a flexible, plastic boot-like enclosure that was sealed at the mid-calf (see, for example, FIG. 19) and the foot was bathed with 1% gaseous nitric oxide in nitrogen at a fixed flow of 1 liter per minute for a total of 2 hours divided over 5 treatment days. Gas entered the boot-like enclosure near the toe region with passive diffusion from the enclosure into a well-ventilated examination room. On day 1, patients were treated for 10 minutes. On day 2, patients were treated for 20 minutes. On each of days 3, 4 and 5, patients were treated for 30 minutes. On days 0, 1, 2, 3, 4, 5 and 12, each patient was assessed by a podiatrist blinded to the patient's treatment group and given a clinical symptom severity score ranging from 0 to 64. The clinical symptom severity score is determined by scoring each of 8 categories (i.e., fissures/cracks, yellow crusting (ruptured blisters), maceration (white moist skin), pruritus (itching), scaling, erythema, vesicles/blisters and burning) on an 8-point scale (i.e., 0=absent, 1-2 mild, 3-5 moderate and 6-8 severe). […]

[3] = mixture of 1000 ppm nitric oxide and 21% oxygen; cited from earlier work
[4] = test system: Human head lice, permethrin(kdr)-resistant SF-HL strain; test: Gas chamber bioassay on human head louse females and eggs (Example 13); settings: for lice killed: adult female lice, 1 liter/minute
Description: The ability of nitric oxide or nitric oxide+oxygen to kill human head louse females and eggs was evaluated using gas chamber bioassay.
Human head lice from the permethrin(kdr)-resistant SF-HL strain were used in a nitric oxide gas bioassay to determine louse mortality at different exposure intervals. Adult female lice and aged eggs (6-8 day old) were used in all bioassays. The lice or eggs were placed in the bottom of a sterile disposable Petri dishes (60×20 mm) and left uncovered. The dish with lice or eggs was placed inside a polyethylene bag and the bag was taped shut with HY-TAPE® (HY-TAPE Intl., Patterson, N.Y.) to seal the chamber and to minimize the volume of gas inside the chamber. The treatments used were either nitric oxide, in combination with oxygen mixed in equal parts at a final concentration of 10,000 ppm nitric oxide and 20% oxygen, or a treatment with nitric oxide alone at 10,000 ppm in nitrogen both with a flow rate of 1 liter/minute. The gas tank was connected to the chamber with PVC tubing and plastic connectors. The nitric oxide, in combination with oxygen, was mixed in the tubing before the chamber inlet. The chamber outlet was also connected with PVC tubing and fed to a NO scrubber to trap the NO gas leaving the chamber. Additionally, tufts of human hair (blond and brown) were placed inside the chamber for a 30 minute exposure interval to nitric oxide+oxygen to assess discoloration of the hair for cosmetic purposes.

[5] = 30 minute exposure interval, 10,000 ppm nitric oxide

Structure (SMILES): [N]=O [nitric oxide]
- clinical symptom severity score on day 3 compared with day 1 ([1]; 40 minutes each day for three days, all patients treated): lower on day 3 than on day 1
- clinical symptom severity score on day 12 compared with day 3 ([1]; 40 minutes each day for three days, most patients treated): lower clinical symptom severity score on day 12 than on day 3
- patients with interdigital tinea who reached the primary clinical endpoint score of ≦8 ([1]; of the 13 patients with interdigital tinea): 8 patients
- amount of total bacteria in biopsies taken from the center of the wounds ([2]; 10,000 ppm nitric oxide, p<0.05, FIG. 10): significant decrease
- average decrease of total bacteria in center biopsies, compared with nitric oxide in combination with oxygen ([2]; pig, in vivo): smaller decrease
- average clinical symptom severity score (0 to 64) during treatment (mild tinea pedis; 1 liter per minute, 2 hours over 5 treatment days): began to decrease on the second day of treatment and continued to decrease until the fifth day of treatment
- average clinical symptom severity score on day 12, seven days after the last treatment (mild tinea pedis): remained as low as it was on day 5
- time for half of the nitric oxide to react to become nitric dioxide [3]: about 3.5 minutes
- ovicidal activity on aged eggs (6-8 days old) [4, 5]: not ovicidal
- lice killed ([4]; 10 minute exposure interval, 10,000 ppm nitric oxide): did not kill any
- lice killed [4, 5]: did not kill any
- egg hatchability ([4]; aged eggs (6-8 days old), 30 minute exposure interval, compared with untreated control eggs): not different from untreated control eggs
